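Tested at 5 concentrations; 48 h exposure; 96-well plates; endpoints linearly interpolated, else capped at highest concentration. The concentration for 50% growth inhibition is given as GI50.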 Activity calls are given as the source filed them. Rule as the data show it: active = GI50 up to about 1.1 µM and inactive = higher.
Key:
Assay in all cases: DTP human tumour cell line panel, 48 h
[1] = system: 786-0
[2] = system: A498
[3] = system: A549
[4] = system: ACHN
[5] = system: CCRF-CEM
[6] = system: COLO 205
[7] = system: EKVX
[8] = system: HCC 2998
[9] = system: HCT-116
[10] = system: HCT-15
[11] = system: HL-60
[12] = system: HOP-62
[13] = system: HOP-92
[14] = system: HT-29
[15] = system: Hs-578T
[16] = system: IGROV-1
[17] = system: K562
[18] = system: KM12
[19] = system: LOX IMVI
[20] = system: M14
[21] = system: MCF7
[22] = system: MDA-MB-231
[23] = system: MDA-MB-435
[24] = system: MOLT-4
[25] = system: Malme-3M
[26] = system: NCI-H226
[27] = system: NCI-H23
[28] = system: NCI-H522
[29] = system: NCI/ADR-RES
[30] = system: OVCAR-3
[31] = system: OVCAR-4
[32] = system: OVCAR-5
[33] = system: OVCAR-8
[34] = system: PC-3
[35] = system: RPMI-8226
[36] = system: RXF 393
[37] = system: SF-295
[38] = system: SF-539
[39] = system: SK-MEL-2
[40] = system: SK-MEL-5
[41] = system: SK-OV-3
[42] = system: SN12C
[43] = system: SR
[44] = system: T47D
[45] = system: TK-10
[46] = system: U-251
[47] = system: UACC-257
[48] = system: UACC-62
[49] = system: UO-31
[50] = system: CAKI-1
[51] = system: DU-145
[52] = system: MDA-N
[53] = system: NCI-H460
[54] = system: SF-268
[55] = system: SK-MEL-28
[56] = system: SNB-19
[57] = system: SW-620

CC(O)c1c2c(cc3c1CC1(C3)Cc3cc4c(c(C(C)O)c3C1)CCC4)CCC2 (stereo not drawn)
GI50 [1]: 14.8 µM (inactive) | GI50 [2]: 14.9 µM (inactive) | GI50 [3]: 13.6 µM (inactive) | GI50 [4]: 11.2 µM (inactive) | GI50 [5]: 5.82 µM (inactive) | GI50 [6]: 13.4 µM (inactive) | GI50 [7]: 27.9 µM (inactive) | GI50 [8]: 17.3 µM (inactive) | GI50 [9]: 12.1 µM (inactive) | GI50 [10]: 14.8 µM | GI50 [11]: 4.76 µM (inactive) | GI50 [12]: 20.7 µM (inactive) | GI50 [13]: 15.3 µM (inactive) | GI50 [14]: 12.9 µM (inactive) | GI50 [15]: 22.5 µM (inactive) | GI50 [16]: 20.3 µM (inactive) | GI50 [17]: 9.59 µM (inactive) | GI50 [18]: 21.8 µM (inactive) | GI50 [19]: 17.5 µM (inactive) | GI50 [20]: 18.6 µM (inactive) | GI50 [21]: 11.8 µM (inactive) | GI50 [22]: 16.8 µM (inactive) | GI50 [23]: 15.8 µM (inactive) | GI50 [24]: 4.13 µM (inactive) | GI50 [25]: 15.9 µM (inactive) | GI50 [26]: 15.6 µM (inactive) | GI50 [27]: 15.5 µM (inactive) | GI50 [28]: 13.1 µM (inactive) | GI50 [29]: 19.1 µM (inactive) | GI50 [30]: 12.4 µM (inactive) | GI50 [31]: 2.86 µM (inactive) | GI50 [32]: 22.5 µM (inactive) | GI50 [33]: 46.2 µM (inactive) | GI50 [34]: 18.7 µM (inactive) | GI50 [35]: 12.6 µM (inactive) | GI50 [36]: 14.9 µM (inactive) | GI50 [37]: 21 µM (inactive) | GI50 [38]: 22.4 µM (inactive) | GI50 [39]: 26.9 µM (inactive) | GI50 [40]: 13 µM (inactive) | GI50 [41]: 23.2 µM (inactive) | GI50 [42]: 16.7 µM (inactive) | GI50 [43]: 8.38 µM (inactive) | GI50 [44]: 11.9 µM (inactive) | GI50 [45]: 27.7 µM (inactive) | GI50 [46]: 14.1 µM (inactive) | GI50 [47]: 13.9 µM (inactive) | GI50 [48]: 19.3 µM (inactive) | GI50 [49]: 1.69 µM (inactive)

O=c1c(Nc2ccccc2)cn(CCOc2ccc(Cl)cc2)c(=O)n1CCOc1ccc(Cl)cc1
GI50 [1]: 28.1 µM (inactive) | GI50 [2]: > 100 µM (inactive) | GI50 [3]: > 100 µM (inactive) | GI50 [4]: > 100 µM (inactive) | GI50 [50]: > 100 µM (inactive) | GI50 [5]: 64 µM (inactive) | GI50 [6]: > 100 µM (inactive) | GI50 [51]: 75.2 µM (inactive) | GI50 [7]: 55.7 µM (inactive) | GI50 [8]: 22.2 µM (inactive) | GI50 [9]: > 100 µM (inactive) | GI50 [10]: > 100 µM | GI50 [15]: 60 µM (inactive) | GI50 [16]: > 100 µM (inactive) | GI50 [17]: > 100 µM (inactive) | GI50 [18]: > 100 µM (inactive) | GI50 [19]: > 100 µM (inactive) | GI50 [20]: 60.3 µM (inactive) | GI50 [23]: 39.1 µM (inactive) | GI50 [52]: > 100 µM (inactive) | GI50 [24]: > 100 µM (inactive) | GI50 [27]: > 100 µM (inactive) | GI50 [53]: > 100 µM (inactive) | GI50 [31]: 26.7 µM (inactive) | GI50 [34]: 41.1 µM (inactive) | GI50 [35]: > 100 µM (inactive) | GI50 [36]: 36.4 µM (inactive) | GI50 [54]: 89.9 µM (inactive) | GI50 [37]: > 100 µM (inactive) | GI50 [55]: > 100 µM (inactive) | GI50 [40]: 75.2 µM (inactive) | GI50 [42]: > 100 µM (inactive) | GI50 [56]: > 100 µM (inactive) | GI50 [43]: 96.2 µM (inactive) | GI50 [57]: > 100 µM (inactive) | GI50 [46]: > 100 µM (inactive) | GI50 [47]: > 100 µM (inactive) | GI50 [48]: > 100 µM (inactive) | GI50 [49]: 51.9 µM (inactive)

CC(=O)O[C@H]1C(=O)[C@@]2(C)C(C(OC(=O)c3ccccc3)[C@]3(O)CC(OC(=O)[C@H](OC(=O)CCC(=O)O)C(NC(=O)c4ccccc4)c4ccccc4)C(C)=C1C3(C)C)C1(OC(C)=O)COC1C[C@@H]2OC(=O)CCC(=O)O (stereo partly drawn)
GI50 [25]: 11.6 µM (inactive) | GI50 [31]: > 79.4 µM (inactive) | GI50 [55]: 5.6 µM (inactive) | GI50 [44]: 0.822 µM (active) | GI50 [49]: 83.9 µM (inactive)

Source: ChEMBL document CHEMBL1201862, “PubChem BioAssay data set” (2004)
